Measurements as given in patent US6861256B2, “Therapeutic and diagnostic tools for impaired glucose tolerance conditions” (The General Hospital Corporation, priority 1997, dated 2005).
Entries after “also recorded” stand apart in the source; their conditions may differ.

Legend:
C. elegans dauers = test: Dauer recovery assay on drug plates; assay type: in vivo; settings: for dauer recovery: C. elegans dauers induced by mutation or pheromone, drug plates; for dauer recovery of daf-2 dauers: daf-2(e1370) mutant dauers, all concentrations
Experimental: Minimal media plates were used for the drug assays: 3.0 g NaCl, 20 g agarose (Sigma-Type II #A6877) and 970 ml of water. The autoclaved solution was cooled to 50-55° C. before 25 ml of 1M KPO4 (pH 6.0), 1.0 ml 1M CaCl2, 1.0 ml of 1M MgSO4, and 1 ml of 5 mg/ml cholesterol were added. In some assays, Escherichia coli (DH5α) bacteria arrested with streptomycin was added to each plate.
In some experiments, 100-200 eggs or synchronized L1s were put onto the drug plates. For all experiments described herein, about 10,000 L1s were placed in 10 ml of S Medium containing 1-2 ml of a 0.4% (w/v) solution of Escherichia coli DH5α bacteria in M9 solution (Wood (1988) (Cold Spring Harbor Laboratory Press, Cold Spring Harbor, N.Y.)) arrested with streptomycin, in a 25 ml flask on a rotating heated water bath at 25° C. For wild-type N2 dauers, 600 μl of the 0.4% bacterial solution and pheromone was also added to flask as described in Gottlieb and Ruvkun (1994) Genetics 137:107120. The pheromone preparation is a solution prepared as follows. Animals were grown in a large flask for several generations, and then spun down. The supernatant was boiled down to a brownish powder and then ethanol extracted. After 72 hours of liquid growth, animals were centrifuged and the supernatant removed. Animals were then resuspended in a 15 ml tube with a pre-heated 25° C. solution of 1% SDS and tubes were placed on a rocker at 25° C. for 30 minutes. Animals were centrifuged and the SDS removed. Animals were washed with either M9 or S medium (Wood (1988) (Cold Spring Harbor Laboratory Press, Cold Spring Harbor, N.Y.)) 4-6 times. After a final spin, 100-200 dauers were placed onto the drug plates without food. 24 and 48 hours later, plates were scored for the number of dauers and non-dauer adults.
For each strain tested, a control plate without any drug, with and without food was also tested. […] The assay was performed at 25° C., which means that the daf-c mutants are still under full dauer inducing conditions.

[1] = tested on: C. elegans unc-86 mutants; test: 5HT accumulation in the NSM neuron of unc-86 mutants; assay type: in vivo
A. caninum L3 = test: Drug assay in A. caninum (resumption of feeding of infective L3); assay type: in vivo, Ancylostoma caninum; settings: for dauer recovery: A. caninum L3, agonist without serum and GSM
Experimental: Hookworm infective L3 animals were collected from 1-4 wk old coproculture by the Baermann technique, and decontaminated with 1% HCL in BU buffer (50 mM Na2PO4/22 mM KH2PO4/70 mM NaCl, pH 6.8) (Hawdon and Schad (1991) in Developmental Adaptations in Nematodes., ed. C. A. Toft, A. A. a. L. B. (Oxford University Press, Oxford), pp. 274-298; and Hawdon and Schad (1991) J. Helm. Soc. Wash. 58:140-142) for 30 minutes at 22° C. Approximately 250 L3 animals were incubated in individual wells of a 96-well tissue culture plate containing 0.1 ml RPMI1640 tissue culture medium, supplemented with 0.25 mM HEPES pH 7.2, 100 U/ml penicillin, 100 μg/ml streptomycin, 100 μg/ml gentamycin, and 2.5 μg/ml amphotericin B. The L3 animals were activated to resume development and feeding by including 10% (v/v) canine serum and 25 mM S-methyl-glutathione (GSM; Hawdon et al. (1995) Exper. Parasitol. 80:205-211). Non-activated L3 animals were incubated in RPMI alone (i.e., without the stimulus). Stock solutions of the drugs were made in RPMI, and included in the incubation at the indicated concentrations. […] The L3 animals were incubated at 37° C. 5% CO2 for 24 hours. The percentage of feeding L3 animals was determined by incubating the L3 animals with 2.5 mg/ml FITC-BSA for 2-3 hours, followed by counting the number of L3 animals that had ingested the labeled BSA by microscopic examination under epi-fluorescent illumination (Hawdon and Schad (1990) J. Parasit. 76:394-398). Each treatment was done in triplicate, and each experiment was repeated at least once.

C. elegans DAF-16 = tested on: T1, C. elegans DAF-16
T1 sequence: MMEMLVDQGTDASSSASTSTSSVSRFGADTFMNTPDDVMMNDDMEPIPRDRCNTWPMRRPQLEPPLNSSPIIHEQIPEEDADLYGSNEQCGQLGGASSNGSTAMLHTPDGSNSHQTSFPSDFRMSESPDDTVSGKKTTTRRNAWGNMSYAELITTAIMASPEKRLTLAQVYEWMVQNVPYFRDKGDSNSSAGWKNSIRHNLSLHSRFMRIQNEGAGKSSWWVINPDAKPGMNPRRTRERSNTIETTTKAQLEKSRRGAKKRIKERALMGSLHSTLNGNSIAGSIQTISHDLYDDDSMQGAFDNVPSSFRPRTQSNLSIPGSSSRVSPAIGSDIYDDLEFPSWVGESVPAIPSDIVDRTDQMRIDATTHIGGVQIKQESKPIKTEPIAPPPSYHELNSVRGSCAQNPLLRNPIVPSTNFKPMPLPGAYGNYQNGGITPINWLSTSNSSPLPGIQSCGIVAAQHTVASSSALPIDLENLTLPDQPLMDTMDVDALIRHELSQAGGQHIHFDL

[2] = tested on: C. elegans DAF-16 with the serine or threonine of the Akt/PKB consensus sites mutated to alanine
[3] = wild-type pheromone-induced dauers

c1ccc([C@H]2CN3CCSC3=N2)cc1 [Levamisole, levamisole]
dauer recovery (C. elegans dauers): no effect on dauer recovery

CNCCC(Oc1ccc(C(F)(F)F)cc1)c1ccccc1 (centres unmarked) [Prozac]
5HT accumulation in the NSM [1]: causes 5HT accumulation in the NSM to disappear

COC(=O)C1=CCCN(C)C1 [arecoline]
dauer recovery (A. caninum L3): promotes dauer recovery | maximal response lower than for the other agonists (A. caninum L3; A. caninum, FIG. 44B): 10 fold lower | dauer recovery (C. elegans dauers): promoted dauer recovery; also recorded: promoted recovery of dauers induced by mutation as well as pheromone | maximal response lower than for the other agonists (C. elegans dauers; C. elegans, FIG. 44B): 10 fold lower | dauer recovery of daf-2 dauers (C. elegans dauers): fails to recover at all concentrations

CN1[C@@H]2CC[C@H]1C[C@@H](OC(=O)C(CO)c1ccccc1)C2 (some centres unmarked) [atropine]
recovery with arecoline plus atropine (A. caninum L3; A. caninum L3, 0.5 mM arecoline and 1.0 mM atropine (increasing atropine in FIG. 44C)): completely inhibited; also recorded: failed to recover | recovery / resumption of feeding (A. caninum L3; A. caninum L3, 10% serum and 25 mM GSM, atropine 0.5 mM): completely inhibited recovery | inhibition at 500 µM (A. caninum L3; Ancylostoma caninum, read-out: inhibition of recovery): 99.5% | inhibition of muscarinic agonist-induced dauer recovery (C. elegans dauers; C. elegans, 1 mM oxotremorine, increasing atropine): completely inhibited; also recorded: all of the drug-induced dauer recovery was inhibited | recovery induced by oxotremorine in combination with atropine (C. elegans dauers; daf-7(e1372) dauers, 1 mM oxotremorine + 1 mM atropine): 5% | oxotremorine response in presence of atropine (C. elegans dauers; daf-7(e1372) dauers, 1 mM oxotremorine + 5 mM atropine): completely abolished | dauer larvae recovered (C. elegans dauers; pheromone-induced dauers, bacterial food plus atropine, 25° C.): 21%

C[N+](C)(C)CCOC(N)=O [carbachol]
dauer recovery (C. elegans dauers): promoted recovery of dauers induced by mutation as well as pheromone

C[C@@H]1O[C@H](C[N+](C)(C)C)C[C@H]1O [muscarine]
dauer recovery (C. elegans dauers): promoted dauer recovery

O=C1CCCN1CC#CCN1CCCC1 [oxotremorine]
dauer recovery (A. caninum L3): promotes dauer recovery | concentration of maximum recovery (A. caninum L3; A. caninum L3 dauers): 5 mM | dauer recovery (C. elegans dauers): promoted dauer recovery; also recorded: promoted recovery of dauers induced by mutation as well as pheromone | Emax at 1000 µM (C. elegans dauers; Caenorhabditis elegans, daf-7(e1372), daf-10(e1387) double mutant, 1 mM oxotremorine, read-out: maximum response, recovery): 13% | dauers that recover (C. elegans dauers; daf-1(m40) dauers in oxotremorine): 30% | dauer recovery of daf-2 dauers (C. elegans dauers): fails to recover at all concentrations | dauers that recover (C. elegans dauers; daf-4(m63) dauers in oxotremorine): 50% | concentration of maximum recovery (C. elegans dauers; daf-7(e1372) dauers): 5 mM | dauers recovered (C. elegans dauers; daf-7(e1372) dauers, 1 mM oxotremorine): 40% | concentration of maximum recovery (C. elegans dauers; [3]): 1 mM

CC[C@@H]1C(=O)OC[C@@H]1Cc1cncn1C [pilocarpine]
dauer recovery (A. caninum L3): failed to recover | dauer recovery (C. elegans dauers): promoted dauer recovery; also recorded: promoted recovery of dauers induced by mutation as well as pheromone | concentration of maximum recovery (C. elegans dauers; daf-7(e1372) dauers): 5 mM | concentration of maximum recovery (C. elegans dauers; [3]): 1 mM

human AKT
in vitro phosphorylation (C. elegans DAF-16): human AKT will phosphorylate C. elegans DAF-16 | in vitro phosphorylation [2]: in vitro phosphorylation of DAF-16 (or fragments of DAF-16) is abolished
